Results on six compounds are retold here after patent publication US20180118682A1, “PHARMACEUTICAL COMPOSITION CONTAINING A TRYPTOPHAN DERIVATIVE” (Ramot at Tel-Aviv University Ltd., priority 2010, published 2018).

Usually logP stands for the decadic logarithm of the partition coefficient of the neutral form, usually between octanol and water. By solubility (thermodynamic) is commonly meant solubility found after equilibrating the solid with the medium. Broadly, the solubility is the concentration that dissolves in the medium under given conditions.

Values after ≈ are worked out from the molar mass of the structure shown.

Data set [1] concerns microorganisms (e.g. bacteria and fungi). Put plainly: microbial preservation of ophthalmic formulations according to European and US pharmacopeia standards. Type of data set: cell-based. Conditions: European standards (Pharmacopeia 7.0) and US-Pharmacopeia. An excerpt:
It can be particularly difficult to preserve formulations against microorganisms (e.g. bacteria and fungi), if the formulation contains a cyclodextrin derivative.
From different tests it can be seen that a sufficient microbial preservation of ophthalmic formulations is not possible with benzalkonium chloride, cetrimide and chlorhexidine according to the European standards (Pharmacopeia 7.0) and US standards (US-Pharmacopeia).

Data set [2] is described as follows: octanol/water partition coefficient log P, pH-metric method (OECD draft guideline 122). Type of data set: physicochemical. Conditions: titrated pH 1.9 to 10.9, 1.3 to 1.9 mM, various octanol/water ratios. From the text:
The octanol/water partition coefficient log P of the compounds of the invention can be determined by accepted standard methods known to the person skilled in the art, such as OECD (1995), Test No. 107: Partition Coefficient (n-octanol/water): Shake Flask Method, OECD Guidelines for the Testing of Chemicals, Section 1: Physical-Chemical properties, OECD Publishing. doi: 10.1787/9789264069626-en.
The log P value may be determined according to the draft OECD guideline OECD (2000), OECD Draft guideline for the Testing of Chemicals: 122 Partition Coefficient (n-Octanol/Water): pH-Metric Method for Ionisable Substances. For Example, log P of compound (A) was investigated using OECD (2000) OECD Draft guideline for the Testing of Chemicals: 122. The sample was titrated in two triple titrations from pH 1.9 to pH 10.9 at concentrations of 1.3 to 1.9 mM in various ratios of octanol/water.

A short description of data set [3]: equilibrium solubility in water at 20 °C with varying cyclodextrin content. The format is physicochemical. The conditions noted are these: thermodynamic from solid. The procedure:
For testing the influence of the cyclodextrin content in ophthalmic formulations, the solubility of Compound (A) was tested.

Data set [4] is described as follows: aqueous solubility of compound (A) as a function of pH (UV-spectroscopy). The format is physicochemical. The conditions noted are these: for solubility: aqueous media, aqueous buffer, R-enantiomer used. The procedure: At acidic conditions, the solubility of the compound (A) is higher.
At alkaline pH-values, the solubility of the compound (A) is also better.
The solubility of the R-enantiomer of compound (A) was determined as a function of the pH-value by using UV-spectroscopy to quantify the concentration of the compound in a series of aqueous media.

Data set [5] is described as follows: compatibility with ophthalmic excipients. Type of data set: physicochemical. Conditions: aqueous solutions at pH 5.5. From the text: In the further series of tests, the compatibility of the compound (A) with other typical ophthalmic excipients was investigated.
Data set [6] is described as follows: equilibrium solubility in citrate buffer saline pH6 with cyclodextrins (shake flask method). Type of data set: physicochemical. The conditions noted are these: citrate buffer saline with cyclodextrin, pH 6, aqueous with cosolvent or surfactant or cyclodextrin, thermodynamic from solid, read-out: Solubility of compound (A). The procedure:
The equilibrium solubility of compound (A) was tested in a citrate buffer saline at pH6 in presence of different cyclodextrins by the shake flask method.

The test system of data set [7] is retinal ganglion cell (RGC) apoptosis. Put plainly: rat glaucoma model (chronic ophthalmic hypertension), RGC apoptosis. Type of data set: in vivo, male Dark Aguti rat. The conditions noted are these: low doses, intravitreal; compared to vehicle; 3 and 6 weeks after OHT induction. The procedure: In a male Dark Aguti rat model, glaucoma is produced by injection of hypertonic saline into episcleral veins of one eye to induce increased ophthalmic pressure (chronic ophthalmic hypertension), while the opposite eye serves as a control. In treatment groups, various doses of compound (A) of the instant invention are injected intravitreally (in […] volume) at the time of glaucoma induction and in some groups the administration continues for following 7 days to see whether such extended treatment results in increased efficacy.
The extent of retinal ganglion cell (RGC) apoptosis at 3 weeks and 6 weeks after chronic ophthalmic hypertension (OHT) induction is assessed in each animal by dynamic confocal scanning laser ophthalmoscopy and fluorescent-labeled Annexin V.
Animals are sacrificed after 3 and 6 weeks and their eyes are enucleated and fixed in 4% para-formaldehyde overnight. Afterwards, retinas are separated for assessing apoptosis related changes, for example visualized with FITC Annexin V kit (BD Biosciences, Franklin Laker (USA).

The test system of data set [8] is Candida albicans. Nature of the data set: preservation of ophthalmic formulation against Candida albicans. Type of data set: cell-based. An excerpt: (§1) For testing of the long term preservation of the ophthalmic formulations with metal-containing preservatives, the pharmaceutical compositions VI of example 4 was modified by adding thiomersal in a concentration of 0.01% by weight in the aqueous formulation.

In data set [9] the test system is Pseudomonas aeruginosa. Put plainly: preservation of ophthalmic formulation against Pseudomonas aeruginosa. Type of data set: cell-based.
Source text: as §1

For data set [10], the system named is Aspergillus niger. Nature of the data set: preservation of ophthalmic formulation against Aspergillus niger. The format is cell-based.
Source text: as §1

In data set [11] the test system is Staphylococcus aureus. Put plainly: preservation of ophthalmic formulation against Staphylococcus aureus. Type of data set: cell-based.
Source text: as §1

[12] abbreviates: 0.001 to 0.01% by weight in the aqueous formulation.
[13] abbreviates: composition VI with thiomersal 0.01% by weight, after 28 days.

With `[H]/N=C(\N/C(=N/[H])NCCCCCCNC(=N)NC(=N)Nc1ccc(Cl)cc1)Nc1ccc(Cl)cc1` [chlorhexidine], the “sufficient microbial preservation of ophthalmic formulations” value (shortened to “sufficient microbial preservation”) in data set [1] was “not possible”.

For `CC(C)(NC(=O)C(N)Cc1c[nH]c2ccccc12)C(=O)O` (stereo not drawn) [compound (A), 2-[2-Amino-3-(1H-indol-3-yl)-propionylamino]-2-methyl-propionic acid], the logP in data set [2] is < -1. Further, the solubility (thermodynamic) turned out to be 11.6 mg/mL (≈ 40.1 mM) in data set [3] (water without cyclodextrin); 20.2 mg/mL in data set [3] (water with cyclodextrin (HPBCD), aqueous with cosolvent or surfactant or cyclodextrin, water containing 65 mg/ml cyclodextrin (HPBCD)); 41.2 mg/mL in data set [3] (water with cyclodextrin, aqueous with cosolvent or surfactant or cyclodextrin, water containing 165 mg/ml cyclodextrin). Further, the solubility was ~14 mg/mL (≈ 48.4 mM) in data set [4] (pH 4.6); ~10 mg/mL (≈ 34.6 mM) in data set [4] (pH 6); ~10 mg/mL (≈ 34.6 mM) in data set [4] (pH 7); ~14 mg/mL (≈ 48.4 mM) in data set [4] (pH 7.2); 12.7 mg/mL (≈ 43.9 mM) in data set [6] (100 mg/ml ACD (α-Cyclodextrin, Fluka)); 27.9 mg/mL (≈ 96.4 mM) in data set [6] (110 mg/ml HPBCD (Kleptose HPB, Roquette)). Besides, the solubility in data set [6] (110 mg/ml HPGCD (Cavasol W8 HP Pharma, ISP)) is 16.2 mg/mL (≈ 56 mM); in data set [6] (110 mg/ml MBCD (Kleptose Crysmeb, Roquette)), 28.7 mg/mL (≈ 99.2 mM). In addition, the results for the “solubility (in words)” value in [4] (at acidic conditions), in [4] (at alkaline pH-values) and in [4] (from pH 4.5 to 7) were “higher”, “better” and “particularly low”, respectively. Moreover, the “compatibility with further components (F) (hypromellose, carbomer, Gellan gum, preservatives)” value in data set [5] is given as “no incompatibilities”. Also, in data set [7], the RGC apoptosis result is “strong decrease”.

`C/C=C/C=C/C(=O)O` [sorbic acid]: the “preservation against Candida albicans” value in data set [8] (0.3% by weight instead of thiomersal in composition VI, after 14 days) is reported as “insufficient preservation”.

Regarding `C[CH2][Hg][S]c1ccccc1C(=O)[O-].[Na+]` [thiomersal], the “activity meeting the compendia requirements” value in [9], in [8], in data set [10] and in data set [11] was “sufficient activity” throughout. Moreover, the duration of preservation in data set [9] (setting [12]), in data set [8] (setting [12]), in data set [10] (setting [12]) and in data set [11] (setting [12]) was ≥ 28 days in each case. For the same compound, the reduction of organism in data set [9] (setting [13]), in data set [8] (setting [13]), in data set [10] (setting [13]) and in [11] (setting [13]) was ≥ 5 log throughout.

For the compound benzalkonium chloride, the “sufficient microbial preservation” value in data set [1] is “not possible”.

cetrimide: the “sufficient microbial preservation” value in [1] was “not possible”.
